Values joined by “and” are separate entries in the source; they are usually repeats but may differ in a detail not shown here. Equal values may be shown once. Active and inactive are the calls of the source.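 Rule for the calls: active = compounds giving half or more protection of infected cells from virus-caused growth loss, again on retest; inactive = the rest.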
Tested on: CEM cells HIV-1 protection, formazan growth assay
Experiment: NCI AIDS Antiviral Assay
Conditions: for IC50: measured here: growth of uninfected CEM cells
Outline: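 Screen of anti-HIV-1 activity in human CEM cells using a formazan-based growth measurement at five drug concentrations. Hits with 50% or greater protection were repeated, and confirmation required reproducible complete protection.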

SMILES	EC50 [µM]	IC50	outcome
COC(=O)C1(Cc2ccc3c(c2)CCC3)Cc2ccc3c(c2C1=O)CCC3 (centres undefined)	> 20	9.55 µM	
COC(=O)C1C2CC3C(C2=O)C31 (centres undefined)	> 200	> 200 µM	
O=C1CC2CCCC23CC2(CCN13)OCCO2 (centres undefined)			inactive
CC(=O)[C@H]1CC[C@H]2[C@@H]3C=CC4=CC(=O)CC[C@@]4(C)[C@@H]3CC[C@]12C	> 126	79.4 µM	
CCCCc1ccc(-n2sc3ncc(-c4ccccc4)cc3c2=O)cc1	95.5	117 µM	
CSC(=S)Nc1cc(C)ccn1	> 200	155 µM	
C#CCNC(CSSCC(N)C(=O)O)C(=O)O (centres undefined)	6.92	> 200 µM	
CN1CCCCCC(=N\O)/C(=N/O)CCCCC1	> 977	> 977 µM	
Cc1ccc(S(=O)(=O)Nn2c(S)c(C#N)c(-c3ccc(N(C)C)cc3)c(C#N)c2=O)cc1	> 200	7.76 µM	
N#CC12CNCC1CN=N2 (centres undefined)	> 200	> 200 µM	
O=C(O)C1(C(=O)O)CC1			inactive
CC(C)(C)OC(=O)CC(NC(=O)OCc1ccccc1)NC(=O)OC(C)(C)C (centres undefined)	> 200	> 200 µM	
CCOC(=O)c1nnc(-c2ccccc2)nc1Cl	> 200	> 200 µM	
CCOC(=O)c1c(N2CCOCC2)[nH]c(=O)c(C(c2ccc(N(C)C)cc2)c2c(O)c(C(=O)OCC)c(N3CCOCC3)[nH]c2=O)c1O	> 200	> 200 µM	
CCCCN(CCCC)CC1CC(C(C)(C)C)CCC1O (centres undefined)	> 200	19.5 µM	
Cc1cc(=O)oc2cc(O)ccc12	> 741	191 µM and > 200 µM	
O=C1CCC2=NCc3c(ccc4ccccc34)N12	> 398	347 µM	
Nc1nn2cc3c(nc2c1N=Nc1ccc(Cl)cc1)CCC3	> 151	> 100 µM	
O=c1n(-c2ccccc2)c2nc3ccccc3nc2n1-c1ccc(Cl)c(Cl)c1	> 61.7	30.2 µM	
COc1cc(C)c2c(c1C=O)Oc1c(c(C)c(O)c3c1C(O)OC3=O)OC2=O (centres undefined)	> 93.3	53.7 µM	
CCc1c(-c2coc(CC/C(C)=C/c3ccccc3)n2)oc(OC)c(C)c1=O	> 9.55	0.251 µM	
CC1SC(N)=NN=C1c1c(O)c2ccccc2oc1=O (centres undefined)	> 200	148 µM	

SMILES	EC50 [µM]	IC50	outcome
CN(C)C(=S)SSC(=S)SSC(=S)N(C)C	> 2	0.646 µM	
CC[C@@]1(OP(=O)(O)O)C(=O)OCc2c1cc1n(c2=O)Cc2cc3ccccc3nc2-1	> 10	0.0263 µM	
CCN(CC)c1ccc2cc(C(=O)NCc3ccccc3)c(=N)oc2c1	> 200	11 µM	
CC1(C)OC(=O)CC(=O)O1	> 200	> 200 µM	
CN1c2ccccc2C2=C(C(=O)CCS2)S1(=O)=O	> 35.5	> 35.5 µM	
O=C(/C=C/c1cccs1)c1ccc(Cl)s1			inactive
Cc1cn2c(n1)sc1ccccc12	> 200	> 200 µM	
c1cncc(CSc2nc3ccccc3nc2-c2cccs2)c1	> 1.55	> 1.55 µM	
NC(N)=NS(=O)(=O)c1ccc(NC(=O)c2cccc3c(N)c4ccccc4nc23)cc1	> 51.3	33.9 µM	
COC1/C=C/OC2(C)Oc3c(C)c(O)c4c(O)c(cc(OCC(=O)N(C)C)c4c3C2=O)NC(=O)/C(C)=C/C=C/C(C)C(O)C(C)C(O)C(C)C(OC(C)=O)C1C (centres undefined)	> 200	31.6 µM	
CN(C)c1ccc(C2CC(c3ccc4ccccc4c3O)=NN2c2ccc([N+](=O)[O-])cc2[N+](=O)[O-])cc1 (centres undefined)	> 151	33.1 µM	
COCN1C(=O)[C@@H]2CCCN2C(=O)c2cc(N)ccc21	> 200	> 200 µM	
CCCCN(CCCC)C(=N)OC	> 200	70.8 µM	
CC(=O)C1(N=Nc2ccc(S(=O)(=O)Nc3nnc(C)s3)cc2)CCOC1=O (centres undefined)	> 200	> 200 µM	
O=[N+]([O-])c1cc(Br)cc2c1[nH]c1nc3ccc(C(F)(F)F)cc3nc12	> 45.7	8.32 µM	
CCOC(=O)c1c(SC(=O)c2ccc(Cl)cc2)n(-c2ccccc2)c(=S)n(-c2ccccc2)c1=O	> 200	141 µM	
CCCCON1C[C@H](OC(C)=O)C(OC(C)=O)[C@H](OC(C)=O)C1 (some centres undefined)	> 200	> 200 µM	
O=[N+]([O-])c1cccnc1-n1cnc2ccccc21	> 200	> 100 µM	
CCc1cc(CCC(=O)Nc2c(C)cccc2C)nc(NC#N)n1			inactive
COc1ccc2c(c1)c1c3c(ccc4ncn2c43)N(CCO)CCN=1	> 100	0.178 µM	
CC(=O)NNc1nc(C)c(C(=O)NNC(=O)C(=O)Nc2c(C)cccc2C)s1	> 89.1	28.2 µM	
N=C(N)SCC1OCOC1C1OCOC1CSC(=N)N (centres undefined)	> 776	> 776 µM	

SMILES	EC50 [µM]	IC50	outcome
CC(c1ccccc1)N1O[C@]12CC[C@@]1(C)C(CCCC13OCCO3)C2 (some centres undefined)			inactive
OC(c1ccsc1)c1ccsc1	> 200	> 200 µM	
CCCCNC(=S)Nc1nc(C(=O)NNC(=S)NCC)cs1	> 200	> 200 µM	
NCCSSCC(N)C(=O)O (centres undefined)	> 58.9	> 58.9 µM	
CC(C(=O)N1C(=O)N(C(=O)C(C)C(O)c2ccccc2)C2CCCCC21)C(O)c1ccccc1 (centres undefined)	> 200	120 µM	
CCC(=O)SC1CC2=CC(=O)CCC2(C)C2CCC3(C)C(O)CCC3C12 (centres undefined)	> 200	> 200 µM	
CC(=O)OCC1OC(n2c(-c3ccccc3)c(C)c(C)c(C#N)c2=S)C(OC(C)=O)C(OC(C)=O)C1OC(C)=O (centres undefined)	> 100	> 100 µM	
COc1cc(C2c3cc4c(cc3C(O)[C@H]3COC(=O)[C@@H]23)OCO4)cc(OC)c1O (some centres undefined)	> 200	1.12 µM	
OCCN(CCO)c1cc(Cl)c(Cl)cc1Cl	> 200	35.5 µM	
Cc1cc(-n2c(/C=C/c3ccc(Cl)cc3)nc3cc(Cl)ccc3c2=O)on1	> 50.1	> 50.1 µM	
O=c1[nH][nH]c(=O)c2nc(Nc3ccco3)ncc12	> 240	> 240 µM	
Cc1nnc(Cc2ccccc2)c2n[nH]c(C)c12	> 398	110 µM	
CC(=O)OC1(C#N)CC2OC1C1C2N1C(=O)c1ccccc1 (centres undefined)	> 316	> 316 µM	
COC(=O)c1cc2c3ccccc3n(C(C)=O)c2cn1			inactive
Cc1ccc(C2=Nc3c(N)nc(N)nc3NC(c3ccccc3)C2)cc1 (centres undefined)	> 200	4.27 µM and 3.72 µM	
O=c1[nH]c(=O)n(C2CC(O)C(CO)O2)cc1OCC1CCCCC1 (centres undefined)	> 200	> 200 µM	
CCOc1ccc(N=C(NC(=O)c2ccccc2)SC)cc1	> 22.4	> 22.4 µM	
COc1cc(OC)c2nc(C)c3c(c2c1)NCC3	> 200	3.98 µM	
CC1CC(C#N)=C2NCCCCN2C1=O (centres undefined)			inactive
COC(=O)N1C2C3CC4C2C4C3N1C(=O)OC			inactive
CC(C)(C)OC(=O)CN1CCNCCN(CC(=O)OC(C)(C)C)CC1	> 200	38 µM	
C=CC1=C(C)C(/C=c2\[nH]/c(=C/c3[nH]c(CC4NC(=O)C(C)/C4=C\C)c(C)c3CCC(=O)O)c(CC(=O)O)c2C)=NC1=O (centres undefined)	> 2690	> 2690 µM	

— PubChem BioAssay AID179 (DTP/NCI, 2004)
